Assay results: US6030961A, “Oxyalkylene phosphate compounds and uses thereof” (Bar-Ilan Research & Development Co., Ltd., priority 1997, dated 2000)
Entries after “also recorded” stand apart in the source; their conditions may differ. Like-named read-outs stand apart in the source and are kept apart here.

Columns and labels:
[1] = test system: human tumor cell lines; assay: Clonogenicity of established tumor cell lines, summary over cell lines
Description: (§1) The cell lines listed in Table 2 were grown to 70-80% confluence in complete medium (RPMI 1640 containing 10% fetal calf serum (FCS), 100 IU penicillin, 100 μg/mL streptomycin and 2 mM L-glutamine). Cells were harvested, washed in complete medium and counted. Cell viability was determined by trypan blue exclusion. The cells were placed into soft agar (0.12% in media) and plated at 5,000 viable cells per well onto an agarose underlayer (0.4%) in 24-well plates. After overnight culture, AB or BODP was added at the indicated concentration. Control cells received media alone. As a control for cell death, cells were treated with a superlethal dose of 10 μg/ml of cisplatin. The dosage of AB or BODP which inhibited fifty percent or ninety percent of cell proliferation (IC50 or IC90 respectively) was calculated using the Chou Analysis' Median Effective Dose equation.
(§2) Clonogenicity is determined as the percentage of clones in treated cultures relative to clones in mediumun-treated control cultures.

[2] = test system: HL-60 cells
Description: The level of CD11b was measured on HL-60 cells by flow cytometry using a monoclonal antibody (MAb) against CD11b in a standard indirect immunofluorescence assay. Cells were cultured for three or six days with the indicated concentration of BODP. Cultured cells were collected by centrifugation, resuspended at 10^6 cells per 20 μl RPMI+10% FCS and incubated with MAb for 30 minutes at 4° C. The cells were washed twice in cold PBS+10% FCS and incubated with a 1:20 dilution of FITC-conjugated F(ab')^2 fragment of rabbit anti-mouse IgG for 20-30 minutes at 4° C. in the dark. After washing the cells twice in cold PBS+10% FCS, flow cytometry was performed on a FACSstar (Becton Dickson) using an argon ion laser adjusted to excitation wavelength of 488 nm on samples containing 10^4 cells.

[3] = test system: SMS-KCN; assay: cells; conditions: Homo sapiens
Description: as §1, §2

[4] = test system: β-thalassemia and sickle-cell anemia patients; conditions: cited from earlier work
[5] = test system: pancreatic cell line, BxPC-3; assay: Colony-forming assay, 24 hour exposure; assay type: cell-based, human; conditions: 24 hour treatment
Description: The effect of 24 hour exposure to BODP or AB was determined by a colony-forming assay on the pancreatic cell line, BxPC-3, which is a primary adenocarcinoma (ACTTnr:CRL-1687). Freshly trypsinized cells were plated at 500 cells/dish in 60 mm^2 tissue culture dishes with the indicated concentration of each compound and incubated for 24 hours at 37° C. in 5% CO2 /air atmosphere. The cultures were washed with PBS, fresh medium was added, and the cultures were incubated for 7-12 days to allow the formation of colonies. Colonies were fixed with methanol, stained with Giemsa and counted. All incubations were performed in triplicate.

[6] = test system: K562 cells; assay: Hb-containing K562 cells by benzidine staining; assay type: cell-based; conditions: for extent of differentiation, dose dependence: hemoglobin accumulation, K562
[7] = test system: NGP; assay: Clonogenicity (soft agar) of established tumor cell lines, NGP
Description: as §1, §2

[8] = test system: B16 melanoma; conditions: cited from earlier work
[9] = test system: neoplastic cells; conditions: in vitro; cited from earlier work
[10] = test system: expression of transfected DNA; conditions: cited from earlier work
[11] = test system: cancer patients; conditions: cited from earlier work
[12] = test system: nuclear deacetylase(s); conditions: cited from earlier work
[13] = cited from earlier work
[14] = test system: HL-60 promyelocytic leukemia; conditions: cited from earlier work
[15] = test system: reporter gene in primary and immortalized cell lines; conditions: cited from earlier work
[16] = U.S. Pat. No. 5,200,553; Nudelman et al.; cited from earlier work
[17] = test system: SMS-KAN; assay: Clonogenicity (soft agar) of established tumor cell lines, SMS-KAN
Description: as §1, §2

[18] = test system: SMS-KCN
Description: as §1, §2

[19] = test system: K562 cells; assay: Total Hb content of K562 cultures by HPLC; assay type: cell-based; conditions: molar basis vs AB; FIG. 5
Description: (2) Quantitative measurement of fetal hemoglobin (HbF) in K562 culture or human erythroid cultures was determined by ion-exchange high pressure liquid chromatography (HPLC) as described by Fibach et al., Blood 81:1630-1635, 1993.
K562 cells: K562 is an erythroblast cell line (obtained from the ATCC, Rockville, Md.) that develops some properties of erythroid, megakaryocyte or monocyte cells, depending on the specific stimulus, when induced by different chemicals. K562 cells were grown in RPMI medium with 10% FCS, supplemented with 2 mM glutamine. Cells were incubated at 37° C. in a humidified, 5% CO2 incubator.

[20] = test system: IMR-32; assay: Clonogenicity (soft agar) of established tumor cell lines, IMR-32
Description: as §1, §2

[21] = test system: NBAS-5; assay: Clonogenicity (soft agar) of established tumor cell lines, NBAS-5
Description: as §1, §2

[22] = test system: LA1-5S; assay: Clonogenicity (soft agar) of established tumor cell lines, LA1-5S
Description: as §1, §2

[23] = test system: SK-N-MC; assay: Clonogenicity (soft agar) of established tumor cell lines, SK-N-MC
Description: as §1, §2

[24] = test system: NBL-W-N; assay: Clonogenicity (soft agar) of established tumor cell lines, NBL-W-N
Description: as §1, §2

[25] = test system: SK-N-SH; assay: Clonogenicity (soft agar) of established tumor cell lines, SK-N-SH
Description: as §1, §2

[26] = test system: human colon carcinoma, leukemia and retinoblastoma cell lines; conditions: in vitro; cited from earlier work

CCCC(=O)O [AB, arginine butyrate, reference compound]
inhibition of cell proliferation, dose dependence [1]: inhibit cell proliferation in a dose-dependent manner
increase in CD11b at the same concentration ([2]; 40 μM): no increase in CD11b
expression of CD11b ([2]; 800 μM): 12%
IC50 [3]: 1870 µM
clinical efficacy ([4]; clinical trials): moderate efficacy
side effects ([4]; β-thalassemia and sickle-cell anemia patients): hypokalemia, headache, nausea and vomiting
growth inhibition at 100 μM ([5]; 100 μM): did not cause complete growth inhibition
extent of differentiation, dose dependence [6]: directly related to the drug dose
IC50 ([7]; Homo sapiens): 197 µM
IC90 ([7]; Homo sapiens): 1620 µM

CCCC(=O)O [BA, Butyric acid]
expression of c-myc and H-ras oncogenes [8]: decrease in the expression of c-myc and H-ras oncogenes
differentiating and antiproliferative activity [9]: potent differentiating and antiproliferative agent
expression of transfected DNA [10]: increase the expression of transfected DNA
clinical efficacy in cancer patients ([11]; BA and BA salts): minimal or transient efficacy
odor in patients ([11]; patients receiving BA): unpleasant odor
effect on nuclear deacetylase(s) and histone acetylation [12]: inhibition of nuclear deacetylase(s), resulting in hyperacetylation of histones H3 and H4
half-life in vivo [13]: very short half-lives in vivo
metabolism ([13]; in vivo): metabolized rapidly
expression of c-myc [14]: decrease

CCCC(=O)OCC(COC(=O)CCC)OC(=O)CCC [Tributyrin]
expression of a reporter gene [15]: enhance the expression of a reporter gene

CCCC(=O)OCOC(=O)C(C)(C)C [AN-9, pivaloyloxymethyl butyrate]
activity among butyric acid prodrugs [16]: most active

CCCC(=O)OCOP(=O)(OCC)OCC [BODP, butyroyloxymethyl diethyl phosphate]
IC50 [17]: 45 µM
IC90 [17]: 128 µM
Ratio AB/BODP IC50 [17]: 25.3
Ratio AB/BODP IC90 [17]: 16.2
inhibition of cell proliferation, dose dependence [1]: inhibit cell proliferation in a dose-dependent manner
growth inhibition / clonogenicity inhibition potency, in words ([1]; BODP vs AB): more potent growth inhibitor than AB; also recorded: significantly more potent tumor cell clonogenicity inhibitor than AB
sensitivity of the cells to BODP compared with AB ([1]; BODP vs AB): at least an order of magnitude more sensitive
ratio of IC50 AB:IC50 BODP, median value ([1]; median over cell lines): 25.2
ratio of IC90 AB:IC90 BODP, median value ([1]; median over cell lines): 28.75
IC50 [18]: 54 µM
Ratio AB/BODP IC50 [18]: 34.7
increase of CD11b expression over untreated cells ([2]; 40 μM, four days, 5760 min): 7 fold
differentiation induction, in words ([2]; BODP vs AB): more active differentiation inducer compared to AB
total Hb content of the cultures [19]: higher activity in inducing erythroid differentiation
IC50 [20]: 35 µM
IC90 [20]: 88 µM
Ratio AB/BODP IC50 [20]: 25.2
Ratio AB/BODP IC90 [20]: 40.5
IC50 [21]: 21 µM
IC90 [21]: 71 µM
Ratio AB/BODP IC50 [21]: 42
Ratio AB/BODP IC90 [21]: 183.5
IC50 [22]: 38 µM
IC90 [22]: 105 µM
Ratio AB/BODP IC50 [22]: 42.8
Ratio AB/BODP IC90 [22]: 25.5
IC50 [23]: 37 µM
IC90 [23]: 145 µM
Ratio AB/BODP IC50 [23]: 5.8
Ratio AB/BODP IC90 [23]: 9.1
IC50 [24]: 38 µM
IC90 [24]: 96 µM
Ratio AB/BODP IC50 [24]: 12.9
Ratio AB/BODP IC90 [24]: 32
concentration causing complete inhibition [5]: above 50 μM
growth inhibition, dose dependence [5]: dose-ependent growth inhibition
extent of differentiation, dose dependence [6]: directly related to the drug dose
proportion of Hb-containing cells per total cell population ([6]; molar basis vs AB, 5 days exposure, FIG. 4): higher proportion of Hb-containing cells
IC50 [7]: 17 µM
IC90 [7]: 49 µM
Ratio AB/BODP IC50 [7]: 11.6
Ratio AB/BODP IC90 [7]: 33.1
IC50 [25]: 15 µM
IC90 [25]: 44 µM
Ratio AB/BODP IC50 [25]: 66.5
Ratio AB/BODP IC90 [25]: 77.2

CCCC(=O)[O-].[Na+] [SB, sodium butyrate]
apoptosis [26]: produce apoptosis in vitro
